Laboratory results as given in publication PMC10353187, “Discovery of a new potent oxindole multi-kinase inhibitor among a series of designed 3-alkenyl-oxindoles with ancillary carbonic anhydrase inhibitory activity as antiproliferative agents” (BMC Chemistry, 2023).
Where two headings read alike, the source gives them in different places.

Key:
[1] = target: hCA I (Homo sapiens, UniProt P00915); assay: Stopped flow CO2 hydrase assay
[2] = target: hCA IX (Homo sapiens, UniProt Q16790); assay: Stopped flow CO2 hydrase assay
[3] = test system: UO-31; assay: NCI-60 single-dose antiproliferative assay (SRB); format: cell-based, human; conditions: Homo sapiens, UO-31, 10 μM single dose; UO-31, Renal cancer; read-out: Cell Growth inhibition Percent
Method: (§1) From the newly synthesized compounds, eleven compounds (4c, 4d, 5, 9a, 9b, 11a, 11b, 13b, 13c, 15b, and 15c) were selected by the National Cancer Institute (NCI) Developmental Therapeutics Program (DTP), Bethesda, Maryland, USA for the in vitro anti-proliferative activity evaluation. The selected compounds were examined at 10 μM dose against the NCI 60-cell line panel. This panel consists of nine cell line groups of leukemia, non-small cell lung carcinoma (NSCLC), melanoma, colon, CNS, ovarian, renal, prostate, and breast cancers. The results are reported as mean-graph of the percent growth relative to control and presented as percentage growth inhibition (GI%), furthermore, mean GI% of each compound over all panel cell lines was calculated (Table 1; Additional file 1; S3: In vitro biological activity).
(§2) From the newly synthesized compounds, eleven compounds were selected by the National Cancer Institute (NCI) Developmental Therapeutics Program (DTP), Bethesda, Maryland, USA for the in vitro anti-proliferative activity evaluation (For further details see supplementary materials).
(§3) NCI In-vitro Cancer Screening is a two-phase procedure that starts with the assessment of all compounds against the sixty NCI cell line panel depicting leukemia, NSCLC, CNS cancer, melanoma, prostate cancer, breast cancer, renal cancer, colon cancer and ovarian cancer cell lines at a single point of 10μM. The output from the single-dose screen is reportable as a mean graph.
(§4) The human tumor cell lines of the cancer screening panel were grown in RPMI 1640 medium containing 5% fetal bovine serum and 2 mM L-glutamine. For a typical screening experiment, cells were inoculated into 96 well microtiter plates in […] at plating densities ranging from 5000 to 40,000 cells/well depending on the doubling time of individual cell lines. After cell inoculation, the microtiter plates were incubated at 37 °C, 5% CO2, 95% air and 100% relative humidity for 24 h prior to addition of experimental drugs. After 24 h, two plates of each cell line were fixed in situ with trichloroacetic acid (TCA), to represent a measurement of the cell population for each cell line at the time of drug addition (Tz). Experimental drugs were solubilized in dimethyl sulfoxide at 400-fold the desired final maximum test concentration and stored frozen prior to use. At the time of drug addition, an aliquot of frozen concentrate was thawed and diluted to twice the desired final maximum test concentration with complete medium containing 50 µg/ml gentamicin. Aliquot of 100 µl of the drug dilution was added to the appropriate microtiter wells already containing 100 µl of medium, resulting in the required final drug concentration (10 µM). Triplicate wells were prepared for each individual dose. Following drug addition, the plates were incubated for an additional 48 h at 37 °C, 5% CO2, 95% air, and 100% relative humidity. For adherent cells, the assay was terminated by the addition of cold TCA. Cells were fixed in situ by the gentle addition of 50 µl of cold 50% (w/v) TCA (final concentration, 10% TCA) and incubated for 60 min at 4 °C. The supernatant was discarded, and the plates were washed five times with tap water and air dried. Sulforhodamine B (SRB) solution (100 µl) at 0.4% (w/v) in 1% acetic acid was added to each well, and plates were incubated for 10 min at room temperature. After staining, unbound dye was removed by washing five times with 1% acetic acid and the plates were air dried. Bound stain was subsequently solubilized with 10 mM trizma base, and the absorbance was read on an automated plate reader at a wavelength of 515 nm. For suspension cells, the methodology was the same except that the assay was terminated by fixing settled cells at the bottom of the wells by gently adding 50 µl of 80% TCA (final concentration, 16% TCA). […]

[4] = target: hCA XII (Homo sapiens, UniProt O43570); assay: Stopped flow CO2 hydrase assay
[5] = target: T1, hCA II (Homo sapiens, UniProt P00918); assay: Stopped flow CO2 hydrase assay
[6] = test system: K-562; assay: NCI-60 single-dose antiproliferative assay (SRB); format: cell-based; conditions: Homo sapiens, K562; 10 μM single dose; K-562, Leukemia; read-out: Cell Growth inhibition Percent
Method: as §1, §2, §3, §4

[7] = test system: MDA-MB-231/ATCC; assay: NCI-60 single-dose antiproliferative assay (SRB); format: cell-based; conditions: Homo sapiens, 10 μM single dose, Breast cancer, read-out: Cell Growth inhibition Percent
Method: as §1, §2, §3, §4

[8] = test system: NCI-H522; assay: NCI-60 single-dose antiproliferative assay (SRB); format: cell-based; conditions: Homo sapiens; 10 μM single dose; NCI-H522, Non-small cell lung cancer; read-out: Cell Growth inhibition Percent
Method: as §1, §2, §3, §4

[9] = test system: 786-0; assay: NCI-60 single-dose antiproliferative assay (SRB); format: cell-based; conditions: Homo sapiens; 10 μM single dose; 786-0, Renal cancer; read-out: Cell Growth inhibition Percent
Method: as §1, §2, §3, §4

[10] = test system: HOP-92; assay: NCI-60 single-dose antiproliferative assay (SRB); format: cell-based; conditions: Homo sapiens; 10 μM single dose; HOP-92, Non-small cell lung cancer; read-out: Cell Growth inhibition Percent
Method: as §1, §2, §3, §4

[11] = test system: NCI-H23; assay: NCI-60 single-dose antiproliferative assay (SRB); format: cell-based; conditions: Homo sapiens; 10 μM single dose; NCI-H23, Non-small cell lung cancer; read-out: Cell Growth inhibition Percent
Method: as §1, §2, §3, §4

[12] = test system: CAKI-1; assay: NCI-60 single-dose antiproliferative assay (SRB); format: cell-based; conditions: Homo sapiens; 10 μM single dose; CAKI-1, Renal cancer; read-out: Cell Growth inhibition Percent
Method: as §1, §2, §3, §4

[13] = test system: SN12C; assay: NCI-60 single-dose antiproliferative assay (SRB); format: cell-based; conditions: Homo sapiens, 10 μM single dose, Renal cancer, read-out: Cell Growth inhibition Percent
Method: as §1, §2, §3, §4

[14] = test system: A498; assay: NCI-60 single-dose antiproliferative assay (SRB); format: cell-based; conditions: Homo sapiens; 10 μM single dose; A498, Renal cancer; read-out: Cell Growth inhibition Percent
Method: as §1, §2, §3, §4

[15] = test system: RPMI-8226; assay: NCI-60 single-dose antiproliferative assay (SRB); format: cell-based; conditions: Homo sapiens; 10 μM single dose; RPMI-8226, Leukemia; read-out: Cell Growth inhibition Percent
Method: as §1, §2, §3, §4

[16] = test system: MCF7; assay: NCI-60 single-dose antiproliferative assay (SRB); format: cell-based; conditions: Homo sapiens; 10 μM single dose; MCF7, Breast cancer; read-out: Cell Growth inhibition Percent
Method: as §1, §2, §3, §4

[17] = test system: SR; assay: NCI-60 single-dose antiproliferative assay (SRB); format: cell-based; conditions: Homo sapiens, 10 μM single dose, Leukemia, read-out: Cell Growth inhibition Percent
Method: as §1, §2, §3, §4

[18] = test system: T-47D; assay: NCI-60 single-dose antiproliferative assay (SRB); format: cell-based; conditions: Homo sapiens, T47D, 10 μM single dose, Breast cancer, read-out: Cell Growth inhibition Percent
Method: as §1, §2, §3, §4

[19] = test system: HL-60(TB); assay: NCI-60 single-dose antiproliferative assay (SRB); format: cell-based; conditions: Homo sapiens, 10 μM single dose, Leukemia, read-out: Cell Growth inhibition Percent
Method: as §1, §2, §3, §4

[20] = test system: KM12; assay: NCI-60 single-dose antiproliferative assay (SRB); format: cell-based; conditions: Homo sapiens; 10 μM single dose; KM12, Colon cancer; read-out: Cell Growth inhibition Percent
Method: as §1, §2, §3, §4

[21] = test system: SK-MEL-5; assay: NCI-60 single-dose antiproliferative assay (SRB); format: cell-based; conditions: Homo sapiens; 10 μM single dose; SK-MEL-5, Melanoma; read-out: Cell Growth inhibition Percent
Method: as §1, §2, §3, §4

[22] = test system: FGFRII; conditions: cited from earlier work
[23] = test system: FGFRI; conditions: read-out: IC50 FGFRI; cited from earlier work
[24] = test system: PDGFR α; conditions: cited from earlier work
[25] = test system: PDGF; conditions: Fig. 2, reported multi-kinase inhibitors; cited from earlier work
[26] = test system: VEGFRII; conditions: cited from earlier work
[27] = test system: VEGFRIII; conditions: cited from earlier work
[28] = test system: VEGFRI; conditions: cited from earlier work
[29] = test system: PDGFR β; conditions: Fig. 2, reported multi-kinase inhibitors; read-out: PDGFB IC50; cited from earlier work
[30] = cited from earlier work
[31] = test system: VEGF; conditions: Fig. 2, reported multi-kinase inhibitors; cited from earlier work
[32] = target: T1, hCA II; parameters: made in house; method as in PMID 15499993, PMID 12678681, PMID 31313595, PMID 26745009; conditions: reported CAIs, Fig. 1; cited from earlier work

Sequence of hCA XII (O43570 25-354): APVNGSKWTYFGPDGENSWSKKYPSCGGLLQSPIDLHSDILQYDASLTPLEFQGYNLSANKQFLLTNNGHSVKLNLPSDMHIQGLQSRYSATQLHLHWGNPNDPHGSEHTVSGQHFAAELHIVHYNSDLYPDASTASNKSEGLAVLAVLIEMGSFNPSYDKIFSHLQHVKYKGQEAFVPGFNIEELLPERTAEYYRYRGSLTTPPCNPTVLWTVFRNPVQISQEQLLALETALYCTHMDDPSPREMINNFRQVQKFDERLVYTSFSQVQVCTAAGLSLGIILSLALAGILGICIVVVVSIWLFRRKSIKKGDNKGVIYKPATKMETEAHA
Sequence of hCA I (P00915 whole entry): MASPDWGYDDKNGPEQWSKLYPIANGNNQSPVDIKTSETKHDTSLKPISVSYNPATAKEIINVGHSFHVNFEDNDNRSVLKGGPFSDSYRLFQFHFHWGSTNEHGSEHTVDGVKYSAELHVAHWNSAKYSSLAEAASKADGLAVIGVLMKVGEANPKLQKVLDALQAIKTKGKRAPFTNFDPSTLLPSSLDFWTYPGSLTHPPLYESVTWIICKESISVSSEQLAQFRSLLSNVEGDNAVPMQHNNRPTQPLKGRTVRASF

O=C1Nc2ccccc2C1=CNc1ccc(C(=O)C=CNc2ccc(S(=O)(=O)Nc3ncccn3)cc2)cc1 [Compound 13b, 4-{[3-Oxo-3-(4-{[(2-oxoindolin-3-ylidene)methyl]amino}phenyl)prop-1-en-1-yl]amino}-N-(pyrimidin-2-yl)benzenesulfonamide]
melting point: 290 to 294 °C
Ki [1]: > 10 µM
Ki [2]: > 10 µM
inhibition at 10 µM [3]: 7.6%
Ki [4]: > 10 µM
Ki [5]: > 10 µM
inhibition at 10 µM [6]: 2.89%
inhibition at 10 µM [7]: 0.12%
inhibition at 10 µM [8]: 1.35%
inhibition at 10 µM [9]: 3.85%
inhibition at 10 µM [10]: 6.38%
inhibition at 10 µM [11]: 3.53%
inhibition at 10 µM [12]: 5.62%
inhibition at 10 µM [13]: 1.75%
inhibition at 10 µM [14]: 1.46%
inhibition at 10 µM [15]: 13.6%
inhibition at 10 µM [16]: 12.6%
inhibition at 10 µM [17]: 17.9%
inhibition at 10 µM [18]: 6.91%
inhibition at 10 µM [19]: 0.37%
inhibition at 10 µM [20]: 62.7%
inhibition at 10 µM [21]: 1.85%

COC(=O)c1ccc2c(c1)NC(=O)/C2=C(\Nc1ccc(N(C)C(=O)CN2CCN(C)CC2)cc1)c1ccccc1 [Nintedanib]
IC50 [22]: 0.037 µM
IC50 [23]: 0.069 µM
IC50 [24]: 0.059 µM
IC50 [25]: 0.059 µM
IC50 ([26]; read-out: IC50 VEGFRII): 0.013 µM
IC50 [27]: 0.013 µM
IC50 ([28]; read-out: IC50 VEGFRI): 0.034 µM

CNC(=O)c1cc(Oc2ccc(NC(=O)Nc3ccc(Cl)c(C(F)(F)F)c3)c(F)c2)ccn1 [Regorafenib]
IC50 ([26]; Fig. 2, reported multi-kinase inhibitors, read-out: VEGFII IC50): 0.042 µM
IC50 [29]: 0.022 µM
IC50 ([28]; Fig. 2, reported multi-kinase inhibitors, read-out: VEGFI IC50): 0.013 µM

CCN(CC)CCNC(=O)c1c(C)[nH]c(/C=C2\C(=O)Nc3ccc(F)cc32)c1C [Sunitinib]
IC50 [25]: 0.002 µM
IC50 ([30]; Fig. 2, read-out: cytotoxicity average IC50): 8.11 µM
IC50 [31]: 0.08 µM

COc1ccc(C2=NN(c3nc4ccccc4s3)C(c3cc(OC)c(OC)c(OC)c3)C2)cc1 (centres unmarked) [VIII]
Ki [32]: 22.7 µM
Tumor selectivity (TS) ([30]; Fig. 1): 29.3
IC50 ([30]; Fig. 1, read-out: Cytotoxicity average IC50): 18.7 µM
